The record followed here is ChEMBL document CHEMBL5550153, “Semisynthesis and biological evaluation of novel honokiol thioethers against colon cancer cells HCT116 via inhibiting the transcription and expression of YAP protein” (Bioorg Med Chem, 2024).

Usually IC50 stands for the concentration that gives 50% inhibition.

Calls of active or inactive are those of the source. No cut-off for these calls is given here. Bounds are passed on as bounds.

The test system of one test is MGC-803. As to the kind of experiment: Antiproliferative activity against human MGC-803 cells assessed as inhibition of cell growth incubated for 48 hrs by MTT assay. In kind it is functional, cell-based. As to conditions: MGC-803, 48 h.
Test [1] relates to HCT-116. As to the kind of experiment: Antiproliferative activity against human HCT-116 cells assessed as inhibition of cell growth incubated for 48 hrs by MTT assay. In kind it is functional, cell-based. As to conditions: HCT-116, 48 h.
For another test, the system named is KYSE-450. Description: Antiproliferative activity against human KYSE-450 cells assessed as inhibition of cell growth incubated for 48 hrs by MTT assay. In kind it is functional, cell-based. As to conditions: KYSE-450, 48 h. A general note: Tetrazolium assays rely on reduction of a dye to a coloured formazan, in cell work by metabolically active cells.
Test [2] deals with HCT-116. Description: Downregulation of YAP protein expression in human HCT-116 cells at 2 to 6 micromol/L measured after 48 hrs by Western blot analysis. The conditions noted are these: dose 2-6 µmol/L. Type of test: functional, cell-based. For orientation: In western blotting, separated proteins are transferred to a membrane and probed.
In test [3] the test system is HCT-116. Description: Induction of cell death in human HCT-116 cells at 2 to 6 micromol/L measured after 48 hrs by Annexin V-FITC/PI staining based flow cytometry analysis. In kind it is functional. As to conditions: dose 2-6 µmol/L. (In general: In flow cytometry, cells or beads pass a laser one at a time.)
The subject of test [4] is HCT-116. Description: Inhibition of colony formation in human HCT-116 cells at 2 to 8 micromol/L measured daily for 7 days by crystal violet staining based analysis. In kind it is functional, cell-based. As to conditions: dose 2-8 µmol/L, time 7.0 day.
The subject of test [5] is HCT-116. Description: Downregulation of YAP gene transcription in human HCT-116 cells at 6 micromol/L measured after 48 hrs by RT-qPCR analysis. Type of test: functional, cell-based. The conditions noted are these: dose 6.0 µmol/L.
The subject of test [6] is HCT-116. As to the kind of experiment: Downregulation of TAZ protein expression in human HCT-116 cells at 2 to 6 micromol/L measured after 48 hrs by Western blot analysis. Type of test: functional, cell-based. The conditions noted are these: dose 2-6 µmol/L.
The subject of test [7] is HCT-116. As to the kind of experiment: Induction of cell cycle arrest in human HCT-116 cells assessed as increase in cells at G1 phase at 2 to 6 micromol/L measured after 48 hrs by PI staining based flow cytometry analysis relative to control. The conditions noted are these: dose 2-6 µmol/L, at 2 to 6 µM. In kind it is functional.
For test [8], the system named is HCT-116. Description: Activation of Hippo signaling pathway in human HCT-116 cells assessed as increase in YAP phosphorylation level at 2 to 6 micromol/L incubated for 48 hrs by Western blotting analysis. The conditions noted are these: dose 2-6 µmol/L. In kind it is cell-based.
Test [9] has as its system HCT-116. Description: Antiproliferative activity against human HCT-116 cells assessed as inhibition of cell growth at 2 to 6 micromol/L by MTT assay. In kind it is functional, cell-based. The conditions noted are these: dose 2-6 µmol/L, time 0-48 hrs, TDE = time-dependent effect.
Test [10] concerns HCT-116. As to the kind of experiment: Induction of cell cycle arrest in human HCT-116 cells assessed as downregulation of CDK4 level at 2 to 6 micromol/L measured after 48 hrs by Western blot analysis. Type of test: functional, cell-based. The conditions noted are these: dose 2-6 µmol/L.
For test [11], the system named is HCT-116. Description: Antiproliferative activity against human HCT-116 cells assessed as inhibition of cell growth measured upto 48 hrs by MTT assay. Type of test: functional, cell-based. The conditions noted are these: dose 2-6 µmol/L.

`C=CCc1ccc(O)c(-c2ccc3c(c2)C[C@@H](CSc2nnc(-c4ccc(C)cc4)o2)O3)c1`: the 50% inhibitory concentration (IC50) in the test with MGC-803 was 29.5 µM; with HCT-116 [1], 59.6 µM; in the test on KYSE-450 it was greater than 50 µM.

With `C=CCc1ccc(O)c(-c2ccc3c(c2)C[C@@H](CSc2nnc(-c4ccc(OC)cc4)o2)O3)c1`, the IC50 with MGC-803 was 39.7 µM; in the test on HCT-116 [1], greater than 50 µM; in the test with KYSE-450, greater than 50 µM.

Take `C=CCc1ccc(O)c(-c2ccc3c(c2)C[C@@H](CSc2nnc(-c4ccc(Cl)cc4Cl)o2)O3)c1`: the figures for the IC50 in the test with MGC-803, in the test on HCT-116 [1] and in the test on KYSE-450 were 21.5 µM, greater than 50 µM and greater than 50 µM, respectively.

For `C=CCc1ccc(O)c(-c2ccc3c(c2)C[C@@H](CSc2nnc(-c4ccccc4Cl)o2)O3)c1`, the IC50 in the test with MGC-803, with HCT-116 [1] and in the test on KYSE-450 was greater than 50 µM each time.

For the compound `C=CCc1ccc(O)c(-c2ccc3c(c2)C[C@@H](CSc2nnc(-c4ccncc4)o2)O3)c1`, the figures for the IC50 in the test with MGC-803, in the test with HCT-116 [1] and with KYSE-450 were 40.6 µM, greater than 50 µM and greater than 50 µM, respectively.

As for `O=c1[nH]cc(F)c(=O)[nH]1` [FLUOROURACIL], the half-maximal inhibitory concentration (IC50) with MGC-803 was 3.88 µM; in the test on HCT-116 [1] it was 9.63 µM; with KYSE-450 it was 32.6 µM.

On to `C=CCc1ccc(O)c(-c2ccc3c(c2)C[C@@H](CSc2nnc(-c4cccnc4)o2)O3)c1`, for which the IC50 was 8.63 µM in the test with MGC-803, 12.3 µM with HCT-116 [1] and greater than 50 µM in the test on KYSE-450.

Consider `C=CCc1ccc(O)c(-c2ccc3c(c2)C[C@@H](CSc2nnc(-c4cccc(C)c4)o2)O3)c1`, for which the figures for the IC50 with MGC-803, in the test on HCT-116 [1] and with KYSE-450 were 20.5 µM, greater than 50 µM and greater than 50 µM, respectively.

With `C=CCc1ccc(O)c(-c2ccc3c(c2)C[C@@H](CSc2nnc(-c4ccccc4OC)o2)O3)c1`, the IC50 in the test with MGC-803, in the test on HCT-116 [1] and in the test with KYSE-450 was greater than 50 µM throughout.

For `C=CCc1ccc(O)c(-c2ccc3c(c2)C[C@@H](CSc2nnc(-c4cccc(F)c4)o2)O3)c1`, the 50% inhibitory concentration (IC50) is 23.8 µM in the test on MGC-803, 29.4 µM in the test on HCT-116 [1] and greater than 50 µM in the test with KYSE-450.

With `C=CCc1ccc(O)c(-c2ccc3c(c2)C[C@@H](CSc2nnc(-c4cccc(OC)c4)o2)O3)c1`, the IC50 in the test with MGC-803, in the test with HCT-116 [1] and in the test with KYSE-450 was greater than 50 µM in each case.

For `C=CCc1ccc(O)c(-c2ccc3c(c2)C[C@@H](CSc2nnc(-c4ccc(F)cc4Cl)o2)O3)c1`, the IC50 with MGC-803 is 20.4 µM; in the test on HCT-116 [1] it was greater than 50 µM; in the test on KYSE-450, greater than 50 µM.

Regarding `C=CCc1ccc(O)c(-c2ccc3c(c2)C[C@@H](CSc2nnc(-c4ccc([N+](=O)[O-])cc4)o2)O3)c1`, the result in the test on HCT-116 [2], with HCT-116 [3], with HCT-116 [5], in the test on HCT-116 [6] and with HCT-116 [10] was Active. In addition, the inhibition entry in the test on HCT-116 [4] was “Active”. Also, the half-maximal inhibitory concentration (IC50) in the test on MGC-803 is greater than 50 µM; with HCT-116 [1], 6.1 µM; in the test on KYSE-450, greater than 50 µM. Moreover, the Activity with HCT-116 [7] is greater than 20%; in the test with HCT-116 [9], “Tde”; in the test with HCT-116 [11], “Dose-Dependent Effect”. Further, the result in the test on HCT-116 [8] was inactive.

As to `C=CCc1ccc(O)c(-c2ccc3c(c2)C[C@@H](CSc2nnc(-c4ccc(Br)cc4)o2)O3)c1`, the half-maximal inhibitory concentration (IC50) in the test on MGC-803 was 44.6 µM; in the test on HCT-116 [1] it was 52.2 µM; with KYSE-450 it was greater than 50 µM.

Consider `C=CCc1ccc(O)c(-c2ccc3c(c2)C[C@@H](CSc2nnc(-c4ccc(F)cc4)o2)O3)c1`, for which the concentration for half-maximal inhibition (IC50) in the test with MGC-803 is 25.1 µM; in the test on HCT-116 [1], 27.4 µM; in the test on KYSE-450, greater than 50 µM.

For the compound `C=CCc1ccc(O)c(-c2ccc3c(c2)C[C@@H](CSc2nnc(-c4ccccc4Br)o2)O3)c1`, the IC50 with MGC-803, in the test on HCT-116 [1] and with KYSE-450 was greater than 50 µM in each case.

Consider `C=CCc1ccc(O)c(-c2ccc3c(c2)C[C@@H](CSc2nnc(-c4ccccc4)o2)O3)c1`, for which the concentration for half-maximal inhibition (IC50) in the test on MGC-803 is 27.5 µM; in the test with HCT-116 [1], 46.7 µM; with KYSE-450 it was greater than 50 µM.

With `C=CCc1ccc(O)c(-c2ccc3c(c2)C[C@@H](CSc2nnc(-c4cccc(Br)c4)o2)O3)c1`, the half-inhibitory concentration (IC50) in the test with MGC-803 was 20.4 µM; in the test on HCT-116 [1], 57.6 µM; in the test on KYSE-450, greater than 50 µM.

On to `C=CCc1ccc(O)c(-c2ccc3c(c2)C[C@@H](CSc2nnc(-c4ccc(Cl)cc4)o2)O3)c1`, for which the IC50 in the test on MGC-803 was 27 µM; in the test with HCT-116 [1], 37.9 µM; with KYSE-450, greater than 50 µM.

In the case of `C=CCc1ccc(O)c(-c2ccc3c(c2)C[C@@H](CSc2nnc(-c4ccccc4C)o2)O3)c1`, the concentration for half-maximal inhibition (IC50) with MGC-803 is 25.7 µM; in the test with HCT-116 [1], 47.7 µM; in the test with KYSE-450, greater than 50 µM.

In the case of `C=CCc1ccc(O)c(-c2ccc3c(c2)C[C@@H](CSc2nnc(-c4ccccc4F)o2)O3)c1`, the 50% inhibitory concentration (IC50) stood at 16.2 µM in the test with MGC-803, 20.1 µM in the test on HCT-116 [1] and 38.7 µM with KYSE-450.

For the compound `C=CCc1ccc(O)c(-c2ccc(O)c(CC=C)c2)c1` [HONOKIOL], the IC50 was found to be 11.8 µM with MGC-803, 17.2 µM in the test on HCT-116 [1] and 32.4 µM with KYSE-450.

Take `C=CCc1ccc(O)c(-c2ccc3c(c2)C[C@@H](CSc2nnc(-c4cccc(Cl)c4)o2)O3)c1`: the IC50 with MGC-803 was 24.6 µM; in the test with HCT-116 [1] it was 43.4 µM; with KYSE-450, greater than 50 µM.

As to `C=CCc1ccc(O)c(-c2ccc3c(c2)C[C@@H](CSc2nnc(-c4ccc(C#N)cc4)o2)O3)c1`, the IC50 in the test with MGC-803, in the test on HCT-116 [1] and with KYSE-450 was greater than 50 µM each time.
